The assay deals with 14-3-3ζ/Tau pS2 peptide interaction. The assay is described as follows: Fluorescence anisotropy 14-3-3ζ titration in the presence of 250 μM compound and Tau pS2 peptide. In kind it is binding. As to conditions: 250 μM compound; 100 nM client peptides, 10 nM Tau pS2 peptide. How it is done: On the other hand, the PPI stabilizing potency of series 1 compounds was highly dependent on the position and chemical property of the substituent. […] The compound screen for these compounds was further complemented by 14-3-3ζ titration assays in the presence of a constant concentration of compound (250 μM) and Tau pS2 peptide (10 nM) (Fig. 3c, ESI ^† Fig. S6).
This statement is strengthened by the diminished stabilizing activity when shifting the more polar chloro substituent from the para (14) to the ortho (5) to the meta position (8), respectively. […]
chromatography (HisTrap high performance cartridges, Cytiva). Typically two 5 mL columns were used for a 2 L culture in which the lysate was loaded on the column, washed with 10 CV wash buffer (50 mM Hepes, pH 8.0, 300 mM NaCl, 25 mM imidazole, 2 mM βME), and eluted with several fractions (2-4 CV) of elution buffer (50 mM Hepes, pH 8.0, 300 mM NaCl, 250 mM imidazole, 2 mM βME). Fractions containing the 14-3-3 protein were combined and dialyzed into 25 mM HEPES pH 8.0, 200 mM NaCl, 10 mM MgCl2, 2 mM βME, followed by dialysis into 25 mM HEPES, 100 mM NaCl, 10 mM MgCl2, 500 μM TCEP (adjusted to pH 8.0). Dialyzed protein was concentrated to ∼40 mg/mL, analyzed by Q -Tof LC/MS, and aliquots were flash -frozen for storage at −80 °C. For 14 -3-3σ∆c, 1 mg TEV per 100 mg purified protein was added to the dialysis to remove the purification tag. The cleaved sample was then again loaded on a 10 mL Ni-NTA column to separate the cleaved product from the expression tag and residual uncleaved protein. The flowthrough was loade d on a Superdex 75 pg 16/60 size exclusion column (GE Life Sciences) using 25 mM HEPES, 100 mM NaCl, 10 mM MgCl2, 500 μM TCEP (adjusted to pH = 8.0) as running buffer. Fractions containing the 14 -3-3 protein were pooled and concentrated to ∼60 mg/mL, analyzed Q -Tof LC/MS, and aliquots were flash -frozen for storage at −80°C.
Fluorescence Anisotropy – compound titration
Compound titration assays were performed by titrating compounds (in 1% DMSO, starting at 500 μM) in a 2-fold dilution series to preformed complex of fluorescein -labeled Tau pS2 (10 nM) and 14 -3-3ζ (100 nM) (which represents approximately 20% bound Tau pS2 peptide to 14 -3-3ζ to allow further complex formation by addition of fragments 1) in FA buffer (10 mM HEPES pH 7.4, 150 mM NaCl, 50 µM TCEP, 0.1% (v/v) Tween20, 0.1% (w/v) BSA). Dilution series were made in polystyrene low -volume 384 -well plates (Corning #4514, Black Round Bottom). Measurements were performed directly after plate preparation, using a Tecan SPARK plate reader at room temperature ( λex: 485±20 nm; λem: 535±25 nm; mirror: automatic; flashes: 30; settle time: 1 ms; gain: optimal; Z -position: calculated from well). Wells containing only fluorescein labelled peptide were used to set as G -factor calibrated from these wells. All data were analyzed using GraphPad Prism (10.0.1) and fitted with a four -parameter logistic model (4PL) to determine binding affinities (dissociation constant, KD). All data shown is background corrected for the signal without 14 -3-3ζ and the mean and standard deviation of technical duplicate is plotted, assay performed in a scientific duplicate for hit compounds.
Fluorescence Anisotropy – 14-3-3 titrations in the presence of compound To characterize the affinity of the Tau peptides for 14-3-3 in the presence of compound, 14-3-3ζ or γ was titrated in a 2-fold dilution series starting at 400 (for the 14-3-3ζ titrations to Tau pS2) or 800 (for the 14-3-3γ titrations to Tau pS214 or pS324) µM. 14-3-3 was added to 10 nM of fluorescein-labeled peptide (Tau pS2, Tau pS214 or Tau pS324) in the presence of 250 µM compound (1% DMSO). The assays were performed in a similar way as described above. Data shown is the average and standard deviation of a technical duplicate, top plateau corrected where needed, assay performed in a scientific duplicate.
Fluorescence Anisotropy – peptide screen […]

Molecules are shown by their SMILES.

For the compound `CCc1ccc(-c2nccn2-c2ccc(C=O)c(Br)c2)cc1` [Compound 18], the “selectivity against panel of 13 14-3-3 client peptides (in words)” value is given as “selective for the 14-3-3ζ/Tau pS2 peptide complex”.

The values are drawn from PMC11892739, “Site-specific molecular glues for the 14-3-3/Tau pS214 protein–protein interaction via reversible covalent imine tethering” (RSC Medicinal Chemistry, 2025).
